From ChEMBL document CHEMBL2331078, “Quantitative purity-activity relationships of natural products: the case of anti-tuberculosis active triterpenes from Oplopanax horridus” (2013)
In brackets after ≈: the same amount, converted by molar mass. Activity calls are given as the source filed them. The rule behind the calls is not given here.

Key:
[1] = test system: Mycobacterium tuberculosis; assay: Antimycobacterial activity against Mycobacterium tuberculosis; type: functional
[2] = test system: Mycobacterium tuberculosis; assay: Antimycobacterial activity against Mycobacterium tuberculosis H37Rv ATCC 27294 by Alamar blue assay; type: functional, organism-based

Structure (SMILES)	MIC [1]	Activity [2]
CC1(C)CC[C@]2(C(=O)O)CC[C@]3(C)C(=CC[C@@H]4[C@@]5(C)CC[C@H](O)C(C)(C)[C@@H]5CC[C@]43C)[C@@H]2C1 [OLEANOLIC_ACID]	29 µg/mL (≈ 63.5 µM)	
C=C(C)[C@@H]1CC[C@]2(C(=O)O)CC[C@]3(C)[C@H](CC[C@@H]4[C@@]5(C)CC[C@H](O)C(C)(C)[C@@H]5CC[C@]43C)[C@@H]12 [BETULINIC ACID]	62 µg/mL (≈ 136 µM)	
CC1(C)CC[C@]2(C(=O)O)CC[C@]3(C)C(=CC[C@@H]4[C@@]5(C)CC[C@@H](O)[C@@](C)(C(=O)O)[C@@H]5CC[C@]43C)[C@@H]2C1		Active
C=C(C)[C@@H]1CC[C@]2(C(=O)O)CC[C@]3(C)[C@H](CC[C@@H]4[C@@]5(C)CC[C@@H](O)[C@@](C)(C(=O)O)[C@@H]5CC[C@]43C)[C@@H]12	54 µg/mL (≈ 111 µM)	Active
